Earlier results, collected in patent US20100317636A1, “REDUCING THE RISK OF CHRONIC LUNG DISEASE IN INFANTS” (China Medical University, a Taiwan corporation, priority 2006, published 2010).

Columns and labels:
[1] = Ryrfeldt et al. (1982)

solubility in chloroform (chloroform): freely soluble | solubility in ethanol (ethanol): sparingly soluble | solubility in heptane (heptane): practically insoluble | solubility in water (water): practically insoluble | degradation in the liver [1]: rapidly degraded
SMILES: CCCC1O[C@@H]2C[C@H]3[C@@H]4CCC5=CC(=O)C=C[C@]5(C)[C@H]4[C@@H](O)C[C@]3(C)[C@]2(C(=O)CO)O1 (stereo partly drawn) [Budesonide, 16 alpha, 17 alpha-(22R,S)-propylmethylenedioxypregna-1,4-diene-11 beta, 21-diol-3,20-dione]
